Patent US20200063108A1, “THREE-DIMENSIONAL TISSUE STRUCTURES” (Dana-Farber Cancer Institute, Inc., priority 2017, published 2020)

Key:
Assay type in all cases: cell-based
[1] = tested on: prostate cancer patient-derived 3-D organoids; test: Exposure of prostate cancer patient-derived 3-D organoids to cytotoxic drugs; details: 100 nM, 3D conditions with Wnt-stimulator R-spondin, in vitro
Experimental: FIG. 2. Left: Exposure of prostate cancer patient-derived 3-D organoids, cultured in 3D conditions in the presence of Wnt-stimulator R-spondin, to cytotoxic drugs (100 nM; vinblastine highlighted with red) and validation of vinblastine response in the respective patient-derived xenograft (PDX) model. […] Right: Histological similarities of in-vitro vs. in-vivo drug-refractory malignant foci.
(§1) Viability is determined by methods known in the art. A preferred method to determine cell viability is the measurement of bioluminescence in cells stably transfected with the luciferase expression vector upon addition of the luciferase substrate. An alternative method to determine cell viability is the measurement of fluorescence in cells stably transfected with the expression vectors of fluorescent protein (e.g. GFP or RFP). Alternatively, the cell viability can be measured by ATP-based assays; for example the Cell-Titer Glow assay. Alternatively, the cell viability can be measured by colorimetric assays, for example the MTT assay. Alternatively, cell viability can be measured by conventional or automated microscopy methods as determined by the size and shape of the cancer organoids. Alternatively, cell viability can be measured by assays measuring mitochondrial function such as the BH3 profiling assay. […]

[2] = tested on: drug-refractory prostate cancer 3-D organoids; test: Re-exposure of drug-refractory prostate cancer 3-D organoids to afatinib and vinblastine; details: re-exposed to afatinib and vinblastine (100 nM) 5 days after first exposure drug-washout
Experimental: FIG. 10: Afatinib-refractory and vinblastine-refractory prostate cancer 3-D organoids longitudinally exposed to afatinib and vinblastine (100 nM) 5 days after the first exposure drug-washout.

MDA-MB-231 2-D cultures = test: Longitudinal exposure of MDA-MB-231 2-D cultures to cytotoxic drugs; details: 100 nM, 2D culture
Experimental: (§2) FIG. 1: Right: Longitudinal exposure of MDA-MB-231 3-D organoids and 2-D cultures to cytotoxic drugs (100 nM). […] Left: H&E staining of day-15 drug-refractory MDA-MB-231 organoids and respective control.
as §1

MDA-MB-231 3-D organoids = test: Longitudinal exposure of MDA-MB-231 3-D organoids to cytotoxic drugs; details: 100 nM, 3D culture spheroids
Experimental: as §2, §1

[3] = tested on: breast cancer patient-derived 3-D organoids; test: Regrowth of breast cancer patient-derived 3-D organoids after docetaxel washout; details: 100 nM for 10 days, then 8 weeks after washout
Experimental: FIG. 11: Breast cancer patient-derived 3-D organoids treated with DMSO-control (left) or 100 nM Docetaxel (center) for 10 days, and 8 weeks after docetaxel washout (right).

| Structure (SMILES) | cell viability curve [1] | cross-resistance of organoids refractory to the named drug [2] | cell killing (viability curve) (MDA-MB-231 2-D cultures) | cell killing (viability curve) (MDA-MB-231 3-D organoids) | regrowth of drug-refractory organoids after drug washout [3] |
| --- | --- | --- | --- | --- | --- |
| CC[C@]1(O)C[C@@H]2CN(CCc3c([nH]c4ccccc34)[C@@](C(=O)OC)(c3cc4c(cc3OC)N(C)[C@H]3[C@@](O)(C(=O)OC)[C@H](OC(C)=O)[C@]5(CC)C=CCN6CC[C@]43[C@@H]65)C2)C1 [vinblastine] | cell viability curve plateauing | cross-resistance | – | – | – |
| CC(=O)O[C@@]12CO[C@@H]1C[C@H](O)[C@@]1(C)C(=O)[C@H](O)C3=C(C)[C@@H](OC(=O)[C@H](O)[C@@H](NC(=O)OC(C)(C)C)c4ccccc4)C[C@@](O)([C@@H](OC(=O)c4ccccc4)[C@H]21)C3(C)C [docetaxel] | – | – | kills virtually all the cells | only a fraction of the cells | ability of drug-refractory organoid to regenerate fully-grown organoids |
